# Data: patent publication US6033823A, “Mutated penicillin G acylase genes” (priority 1994, dated 2000)
# Residue numbers refer to the chain shown, from its start.
# Experiments:
# [1] = target: T1, Alcaligenes faecalis Penicillin G acylase mutant B:L56G (Alcaligenes faecalis, UniProt O34142, L321G); experiment: NIPAB kinetics and phenylacetic acid product inhibition, mutant B:L56G; format: biochemical; conditions: from progress curves of NIPAB deacylation, 25° C., 0.1 M NaH2PO4.H2O buffer pH 7.5, read-out: Ki Phenylacetic acid (inhibition constant, dissociation constant)
# T1 construct: alpha 202 aa, beta 551 aa; recombinant, E. coli host
# T1 sequence (O34142 27-228): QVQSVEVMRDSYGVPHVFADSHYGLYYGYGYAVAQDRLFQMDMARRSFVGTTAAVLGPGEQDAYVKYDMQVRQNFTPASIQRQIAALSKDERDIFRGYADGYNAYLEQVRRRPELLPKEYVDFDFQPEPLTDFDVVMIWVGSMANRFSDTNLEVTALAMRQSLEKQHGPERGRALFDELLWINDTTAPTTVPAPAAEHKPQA
# T1 sequence (O34142 266-816 L321G): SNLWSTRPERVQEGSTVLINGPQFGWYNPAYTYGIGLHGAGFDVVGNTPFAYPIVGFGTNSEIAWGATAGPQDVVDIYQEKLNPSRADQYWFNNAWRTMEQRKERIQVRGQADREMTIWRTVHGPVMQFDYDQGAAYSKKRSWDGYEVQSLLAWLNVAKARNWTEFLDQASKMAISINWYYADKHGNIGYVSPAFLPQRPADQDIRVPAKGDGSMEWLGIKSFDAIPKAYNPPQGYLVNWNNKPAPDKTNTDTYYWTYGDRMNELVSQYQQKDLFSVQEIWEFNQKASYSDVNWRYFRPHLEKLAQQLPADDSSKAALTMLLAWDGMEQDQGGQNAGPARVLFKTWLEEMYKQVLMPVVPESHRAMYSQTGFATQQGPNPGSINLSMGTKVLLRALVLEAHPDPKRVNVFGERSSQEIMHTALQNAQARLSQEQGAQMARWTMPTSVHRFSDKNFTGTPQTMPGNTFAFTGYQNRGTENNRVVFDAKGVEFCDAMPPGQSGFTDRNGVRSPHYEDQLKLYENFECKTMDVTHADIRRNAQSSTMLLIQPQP
# Description: (§1) In a continuous assay Penicillin G acylase was assayed spectro-fotometrically with the chromogenic substrate NIPAB [6-nitro-3-phenylacetamido-benzoic acid]. The liberation of 3-amino-6-nitrobenzoic acid was monitored by measuring the extinction at 405 nm in a Kontron 610 kinetic spectrofotometer. Measuring maximal rate, the assays were performed at 25° C. using 20 mM NaH2 PO4.H2 O at pH 7.5 with 20 mM NIPAB and 100 μl enzym solution (at a proper dilution). Initial rate measurements were performed with varying concentration of NIPAB.
# (§2) Initial rate measurements were performed with excess substrate over the enzyme. Catalytic parameters were derived from least-squares fitting of the measured initial rates plotted for various substrate concentrations according to the Michaelis-Menten equation.
# (§3) The complete conversion of NIPAB was followed as a funtion of time at 20, 50 and 100 μM NIPAB by following the increase in absorbtion at 405 nm. Products of this conversion are phenylacetic acid and 3-amino-6-nitrobenzoic acid. The conversion was performed at 25° C. in 0.1 M NaH2 PO4.H2 O buffer pH 7.5. The progress curves of the deacylation of NIPAB could be fitted very well when product inhibition by phenylacetic acid was taken into account. […]
# [2] = target: T2, Alcaligenes faecalis Penicillin G acylase mutant B:I177V (Alcaligenes faecalis, UniProt O34142, I442V); experiment: NIPAB kinetics and phenylacetic acid product inhibition, mutant B:I177V; format: biochemical; conditions: from progress curves of NIPAB deacylation, 25° C., 0.1 M NaH2PO4.H2O buffer pH 7.5, read-out: Ki Phenylacetic acid (inhibition constant, dissociation constant)
# T2 construct: alpha 202 aa, beta 551 aa; recombinant, E. coli host
# T2 sequence (O34142 27-228): T1 sequence (O34142 27-228)
# T2 sequence (O34142 266-816 I442V): T1 sequence (O34142 266-816 L321G) with G56L, I177V
# Description: as §1, §2, §3
compound,measurement,setting,value
O=C(O)Cc1ccccc1 [phenylacetic acid],Ki,[1],55 µM
same,Ki,[2],35 µM
